According to PubChem BioAssay (NCI):
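Growth conditions: 96-well plates. Treatment: test compound, 48 hours, 5 concentrations. Analysis: linear interpolation between bracketing concentrations; unreached endpoints set to highest concentration. GI50 = concentration required for 50% inhibition of growth. The concentration for full growth arrest is given as TGI.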

Assays:
Experiment in all cases: DTP human tumour cell line panel, 48 h
ACHN renal = system: ACHN renal
HCT-116 colon = system: HCT-116 colon
HCT-15 colon = system: HCT-15 colon
HOP-62 NSCLC = system: HOP-62 NSCLC
NCI-H522 lung = system: NCI-H522 lung
OVCAR-8 ovarian = system: OVCAR-8 ovarian
RPMI-8226 leukemia = system: RPMI-8226 leukemia
SNB-19 CNS = system: SNB-19 CNS
UACC-257 melanoma = system: UACC-257 melanoma
CCRF-CEM leukemia = system: CCRF-CEM leukemia

SMILES	TGI (ACHN renal) [µM]	TGI (HCT-116 colon) [µM]	TGI (HCT-15 colon) [µM]	TGI (HOP-62 NSCLC) [µM]	TGI (NCI-H522 lung) [µM]	TGI (OVCAR-8 ovarian) [µM]	TGI (RPMI-8226 leukemia) [µM]	TGI (SNB-19 CNS) [µM]	TGI (UACC-257 melanoma) [µM]	TGI (CCRF-CEM leukemia) [µM]	GI50 (ACHN renal) [µM]	GI50 (CCRF-CEM leukemia) [µM]	GI50 (HCT-116 colon) [µM]	GI50 (HCT-15 colon) [µM]	GI50 (HOP-62 NSCLC) [µM]	GI50 (NCI-H522 lung) [µM]	GI50 (OVCAR-8 ovarian) [µM]	GI50 (RPMI-8226 leukemia) [µM]	GI50 (SNB-19 CNS) [µM]	GI50 (UACC-257 melanoma) [µM]
CCN(CC)CC(C(=O)Nc1c(C)cccc1C)/C(C)=N\NC(=O)C[N+](C)(C)C (configuration not stated)	> 100	> 100	> 100	> 100	> 100	> 100	> 100	> 100	> 100											
O=C(O)C(Cc1ccccc1)N1C(=O)N/C(=C\c2ccc(F)cc2)C1=O (configuration not stated)	> 100	> 100	> 100	> 100	> 100	> 100	> 100		> 100	> 100										
CCCCCCCC(=O)SCC/C=C/[C@@H]1CC(=O)NCc2cccc(n2)C2=N[C@@](C)(CS2)C(=O)N[C@@H](C(C)C)C(=O)N1	> 33.3	5.09	> 33.3	> 33.3	1.85	> 33.3	> 33.3	> 33.3		> 33.3	2.71	1.47	0.166	14.3	1.07	0.12	0.421	0.639	2.06	
O=[S@@]1Nc2ccc(Br)cc2S1	> 100	> 100			68.6		> 100	39.3	> 100	> 100										
COc1c2ccoc2c(/C=C/C=O)c2oc(-c3ccccc3)cc(=O)c12	> 100	4.73	9.06	9.48	> 100	> 100	5.81	> 100	24.2		20.8		1.7	2.52	2.49	17.6	2.86	2.24	12	11.5
CN(CC(=O)O)S(=O)(=O)c1ccc2ccccc2c1	> 100		> 100		> 100	> 100	> 100	> 100	> 100	> 100										
CC1=C(C#N)C23C(=O)c4ccccc4C(O)=C2C(=O)C=CC3(O)N1Cc1ccccc1 (configuration not stated)	> 100	> 100	> 100	> 100	58.1	> 100	> 100	> 100	> 100		29.4		34.8	15	49.9	22.9	38.5	34	40.1	35
CCNC1C2(CCCCC2)NC(=O)C12CCCCC2 (configuration not stated)	> 100	> 100	> 100	> 100		> 100	> 100		> 100	> 100										
CC(=O)OC1COC(n2c(=S)n(-c3ccc(C)cc3)c(=O)c3ccccc32)C(OC(C)=O)C1OC(C)=O (configuration not stated)	> 100	> 100	> 100	> 100	> 100	> 100	> 100	> 100	> 100											
N#CC(C#N)=c1ccc(=C2NCC3CCCN23)cc1 (configuration not stated)		> 100	> 100	> 100	> 100	> 100	> 100	> 100	> 100	> 100										
C=CCc1cc(OC)c2c(c1)C(O)CC(c1ccc(OC)c(OC)c1)O2 (configuration not stated)	> 100	> 100	> 100	> 100	> 100	> 100		> 100	> 100	> 100										
Cc1cc(=O)[nH]c(NNC(C#N)c2cccc(O)c2)n1 (configuration not stated)	> 100	> 100	> 100	> 100	> 100	> 100	> 100		> 100	> 100										
O=C1NC2(CCCCC2)C2CCCCC(O)C12 (configuration not stated)	> 100	> 100	> 100	> 100		> 100	> 100	> 100	> 100	> 100										
CNC(=O)c1ccccc1Nc1nc(Nc2ccc(N3CCOCC3)cc2OC)ncc1Cl		> 35.3	> 40.8	9.07	9.66	> 100	> 48.5	> 100	> 100	> 81.9		0.531	0.537	0.542	0.341	0.764	2.29	2.02	2.05	0.421
CC(=O)NC1=C(NCC(C)(C)C)C(=O)c2ccccc2C1=O	74.5	> 100	> 100	> 100	49.7	> 100		> 100	> 100	> 100										
CSc1ccc(/C=C2\CN(C)C/C(=C\c3ccc(SC)cc3)C2=O)cc1	> 100	> 100	> 100	> 100		39.6	> 100		> 100	> 100										

SMILES	TGI (ACHN renal) [µM]	TGI (HCT-116 colon) [µM]	TGI (HCT-15 colon) [µM]	TGI (HOP-62 NSCLC) [µM]	TGI (NCI-H522 lung) [µM]	TGI (OVCAR-8 ovarian) [µM]	TGI (RPMI-8226 leukemia) [µM]	TGI (SNB-19 CNS) [µM]	TGI (UACC-257 melanoma) [µM]	TGI (CCRF-CEM leukemia) [µM]	GI50 (ACHN renal) [µM]	GI50 (CCRF-CEM leukemia) [µM]	GI50 (HCT-116 colon) [µM]	GI50 (HCT-15 colon) [µM]	GI50 (HOP-62 NSCLC) [µM]	GI50 (NCI-H522 lung) [µM]	GI50 (OVCAR-8 ovarian) [µM]	GI50 (RPMI-8226 leukemia) [µM]	GI50 (SNB-19 CNS) [µM]	GI50 (UACC-257 melanoma) [µM]
COc1ccc2nc3cc(Cl)ccc3c(Sc3ccccc3[N+](=O)[O-])c2c1	> 100	> 100	> 100	> 100	> 100	> 100		> 100	> 100	> 100										
COc1cccc(NC(=O)CC(=O)n2nc(C)c(N=Nc3ccccc3)c2C)c1	> 100	> 100		> 100	> 100	> 100	> 100	> 100	> 100											
CC1CN1P1(N2CC2C)=NP(N2CC2C)(N2CC2C)=NP(N2CC2C)(N2CC2C)=N1 (configuration not stated)	> 50	> 50	> 50		> 50	> 50	> 50	> 50		> 50										
CCOC(=O)C(Sc1ccccc1)c1c(OC)cc(=O)oc1/C=[N+](/[O-])c1ccc(N(C)C)cc1 (configuration not stated)			31.8	> 100		44.2	48	> 100	28.7	15.4										
O=C(O)c1cc(C(=O)O)cc(N2C(=O)c3ccccc3C2=O)c1	> 100	> 100	> 100	> 100	> 100	> 100	> 100	> 100	> 100											
CSCCCN(CCCSC)CCCSC		> 100	> 100	> 100	> 100	> 100		> 100	> 100	> 100										
CNC(=O)c1cc(Oc2ccc3nc(NC(=O)Nc4ccc(Cl)c(C(F)(F)F)c4)sc3c2)ccn1	3.8	5.39		4.74	> 100	5.25		10.2	> 100		1.85		1.89		1.94	2.54	2.34		2.77	3.37
O=C1/C(=C/c2ccc([N+](=O)[O-])cc2)COc2ccc(O)c(O)c21	2.92	3.35	3.55	6.34	0.474	9.93	1.01	3.1	4.32		1.5		1.57	0.606	2.57	0.204	2.29	0.316	1.56	1.89
CC(C)=CCCc1c(C)ccc2c1C(=O)C(=O)C(C(C)C)=C2	6.84	6.55	7.14		6.39	7	6.16	> 22		1.9										
FC(F)(F)c1ccc(C2SCc3nc4ccccc4n32)cc1 (configuration not stated)	> 100	> 100				> 100	> 100	> 100	> 100	> 100										
COc1cc2nc(-c3ccc(C(F)(F)F)cc3)cc(OCCCN3CCC(O)CC3)c2cc1OC	16.7	17.2	13.8	15	19.3	22.2		28.3	6.5	17.7	3.18	3.27	0.671	0.667	1.8	4.15	1.66		10.5	2.28
C/C(CCn1[nH]c(=O)ccc1=O)=N\O	> 100	> 100	> 100	> 100		> 100	> 100	> 100	> 100	> 100										
COc1ccc2c(c1)C1(C=N2)CCN(C(C)=O)CC1	> 100	> 100	> 100	> 100		> 100	> 100		> 100	> 100										
O=C(O)CCSC(=O)Nc1cccc(F)c1	> 100		> 100	95.7		> 100	> 100	> 100	> 100	> 100										
CCOC(=O)C1=C(C)CC2C(=O)OC(=O)C2C1(C)C (configuration not stated)	> 100		> 100		> 100	> 100	> 100	> 100	> 100	> 100										
